Structures are written as SMILES. A value given as a limit tells only on which side of the number the result lay.

The results in this text go back to US8927549B2, “Adamantyl benzamide derivatives” (High Point Pharmaceuticals, LLC, priority 2008, dated 2015).

In the assay the target is T1, 11β-HSD (Homo sapiens, UniProt P28845).
T1 construct: from tissue
T1 sequence (P28845 whole entry): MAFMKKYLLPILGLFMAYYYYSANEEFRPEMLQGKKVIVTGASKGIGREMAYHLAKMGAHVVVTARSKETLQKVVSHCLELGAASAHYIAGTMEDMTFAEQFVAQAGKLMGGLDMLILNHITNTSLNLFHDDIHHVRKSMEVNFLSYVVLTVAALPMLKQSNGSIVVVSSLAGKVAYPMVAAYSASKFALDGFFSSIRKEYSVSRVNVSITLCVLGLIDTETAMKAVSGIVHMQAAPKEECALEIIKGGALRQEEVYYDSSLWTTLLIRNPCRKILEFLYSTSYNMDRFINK
Briefly: in vitro 11β-HSD Assay (human microsomes, CISBIO Cortisol kit). Type of assay: biochemical. The settings on record: 160 nM cortisone, 200 μM NADPH, 2 h at 37° C. As for the experimental part:
Protocol for in vitro 11β-HSD Assay
CISBIO Cortisol kit #62CO2PEB
Assay Buffer: (water based) used for Enzyme, Compounds and Microsomes: 20 mM Tris, 5 mM EDTA, and pH 6.0.
Enzyme Buffer: 333 μM NADPH (FAC 200 μM) and 266 nM Cortisone (FAC 160 nM).
1) Test compounds (10 mM stock in 100% DMSO) were diluted in Assay Buffer (see below) with 1% DMSO FAC and placed into the 96-well plate. Test compounds were typically tested over 10 concentrations (30 μM-0.3 nM).
2) 30 μL Enzyme Buffer, 10 μL Test Compound, 10 μL human microsomes were added to the test compounds and mixed gently by tapping the plate.
3) The plates were incubated for 2 h at 37° C.
4) 25 μL anti Cortisol-K and 25 μL Cortisol d2 were added to the plate and mixed gently by tapping the plate.
5) The plates were incubated at room temperature for 2 h.
6) The plates were read on an Envision model 2120 Perkin-Elmer using emission filters #205 and #217.
For orientation: EC50 means the concentration giving half of the maximal effect. Low readings indicate an effect from little substance, high ones a need for much substance. With `O=C(NC1C2CC3CC1CC(O)(C3)C2)c1cccc(Oc2ccc(Cl)cn2)c1` (stereo not drawn) [Example 1, 3-(5-Chloro-pyridin-2-yloxy)-N-[(E)-5-hydroxy-adamantan-2-yl]-benzamide], the EC50 is < 200 nM.
The figure for `O=C(NC1C2CC3CC1CC(O)(C3)C2)c1cccc(Oc2ccc(C(F)(F)F)cn2)c1` (stereo not drawn) [Example 2, N-[(E)-5-Hydroxy-adamantan-2-yl]-3-(5-trifluoromethyl-pyridin-2-yloxy)-benzamide] is < 200 nM; for `O=C(NC1C2CC3CC1CC(O)(C3)C2)c1cccc(Sc2ccc(Cl)cn2)c1` (stereo not drawn) [Example 3, 3-(5-Chloro-pyridin-2-ylsulfanyl)-N-[(E)-5-hydroxy-adamantan-2-yl]-benzamide] it is < 200 nM; for `O=C(NC1C2CC3CC1CC(O)(C3)C2)c1cccc([S+]([O-])c2ccc(Cl)cn2)c1` (stereo not drawn) [Example 4, 3-(5-Chloro-pyridine-2-sulfinyl)-N-[(E)-5-hydroxy-adamantan-2-yl]-benzamide] it is < 500 nM.
Consider `O=C(NC1C2CC3CC1CC(O)(C3)C2)c1cccc(S(=O)(=O)c2ccc(Cl)cn2)c1` (stereo not drawn) [Example 5, 3-(5-Chloro-pyridine-2-sulfonyl)-N-[(E)-5-hydroxy-adamantan-2-yl]-benzamide], for which the EC50 is < 3000 nM.
For `O=C(NC1C2CC3CC1CC(O)(C3)C2)c1cccc(Oc2ccc(Cl)nn2)c1` (stereo not drawn) [Example 6, 3-(6-Chloro-pyridazin-3-yloxy)-N-[(E)-5-hydroxy-adamantan-2-yl]-benzamide], the EC50 is < 200 nM.
Consider `O=C(NC1C2CC3CC1CC(O)(C3)C2)c1cccc(Oc2ncc(Cl)cc2Cl)c1` (stereo not drawn) [Example 7, 3-(3,5-Dichloro-pyridin-2-yloxy)-N-[(E)-5-hydroxy-adamantan-2-yl]-benzamide], for which the EC50 is < 200 nM.
`O=C(NC1C2CC3CC1CC(O)(C3)C2)c1cccc(Nc2ccc(Cl)cn2)c1` (stereo not drawn) [Example 8, 3-(5-Chloro-pyridin-2-ylamino)-N-[(E)-5-hydroxy-adamantan-2-yl]-benzamide]: the concentration giving a half-maximal response (EC50) is < 200 nM.
As to `Cc1cc(C)nc(Nc2cccc(C(=O)NC3C4CC5CC3CC(O)(C5)C4)c2)n1` (stereo not drawn) [Example 9, 3-(4,6-Dimethyl-pyrimidin-2-ylamino)-N-[(E)-5-hydroxy-adamantan-2-yl]-benzamide], the EC50 was < 500 nM.
